Reference: patent US8679478B2, “Methods of lysosomal storage disease therapy” (Duke University, priority 2010, dated 2014)

What was measured:
Format in all cases: in vivo, mouse
GAA-KO mice [1] = assay: Glycogen content in muscles, ERT plus clenbuterol or albuterol; conditions: ERT plus albuterol 30 μg/ml drinking water
Procedure: FIG. 8A-8C depicts increased GAA uptake and increased glycogen clearance in GAA-KO mice following clenbuterol treatment and ERT. […] GAA-KO mice were administered four weekly doses of rhGAA (20 mg/kg), and treated with clenbuterol (n=6) or untreated (n=5). […] Mean+/−standard deviation are shown. Statistically significant differences indicated (*=p<0.05; **=p<0.01).
GAA-KO mice were treated with weekly rhGAA (20 mg/kg): with medium clenbuterol, […] (n=6), with low clenbuterol, 1.3 mg/ml (n=6), with albuterol 30 mg/ml (n=4), or without drug treatment (n=3). Drugs were administered in the drinking water. Mean+/−s.d. shown. Statistically significant differences indicated (*=p<0.05; **=p<0.01).
(§1) For in vivo analysis of AAV vectors, stocks were administered intravenously (via the retroorbital sinus) in 3 month-old and 15 month-old GAA-KO mice, and to 3 month-old tolerant GAA-KO and DKO mice. Clenbuterol (30 μg/ml) was administered to groups of 3 month-old vector-injected and mock-injected male GAA-KO mice in drinking water for 28 days. At the indicated time points post-injection, tissue samples were obtained and processed as described below. All animal procedures were done in accordance with Duke University Institutional Animal Care and Use Committee-approved guidelines. GAA activity and glycogen content were analyzed essentially as described (Sun et al., Mol. Ther., 2005, 11:889-898; Sun et al., Mol. Ther., 2005, 11: 57-65). Rotarod testing was performed essentially as described (Sun, B. D. et al. 2005). Western blotting of hGAA was performed essentially as described (Amalfitano et al., Proc. Natl. Acad. Sci. USA, 1999, 96: 8861-8866) using the hGAA monoclonal antibody (courtesy of Genzyme Corp., Framingham, Mass.) and the CI-MPR antibody (catalog number GTX28093; Gene Tex, Irvine, Calif.).
The efficacy from gene therapy was increased by β2 agonist stimulation from clenbuterol treatment, and this benefit might be expected to affect ERT in Pompe disease, as well. Therefore, groups of 3 month-old GAA-KO mice were treated with four weekly doses of rhGAA (20 mg/kg), with or without concurrent clenbuterol treatment.

[2] = system: immune tolerant GAA-KO mice; assay: Histopathology of brain, glycogen staining; conditions: cerebellum; in comparison with ERT alone
Procedure: Histopathology was performed to examine brain involvement, and glycogen accumulations were detected in the cerebellum with ERT alone. Albuterol and clenbuterol each reduced the glycogen staining in the cerebellum, in comparison with ERT alone.

[3] = system: immune tolerant GAA-KO mice; assay: Rotarod testing, ERT plus β2 agonist (Example 6); conditions: one week later (than 4 weeks); albuterol 30 mg/l drinking water plus ERT v. ERT alone
Procedure: GAA-KO mice were administered four weekly doses of rhGAA (20 mg/kg), and treated with medium dose clenbuterol (n=7), albuterol (n=4) or untreated (n=6 or 3). […] Mean+/−standard deviation are shown. P values indicate statistically significant differences (lines).
Two β2 agonists were evaluated in combination with ERT, clenbuterol and albuterol. The dose of clenbuterol was reduced 5-fold from the concentration used in Example 4, to 6 mg/l in drinking water, while albuterol was evaluated at the higher dose (30 mg/l in drinking water). Groups of 3 month-old immune tolerant GAA-KO mice (Raben et al., Human Mol. Genet., 2001, 10:2039-2047) were treated with four weekly doses of rhGAA (20 mg/kg body weight), with or without concurrent β2 agonist treatment.
Mice were sacrificed 7 days after the last injection. Selected tissues were collected for GAA enzyme activity and glycogen content analyses. […] GAA activity and glycogen content analyses, Rotarod testing, and Western blot detection of CI-MPR was performed essentially as described (Koeberl et al., Mol. Genet. Metab., 2011, 103:107-112. Wire hang testing was performed with a 0.5 cm mesh hardware cloth fixed to an 8 by 10 inch frame. Mice were placed on the wire mesh, which was slowly inverted 6 inches over a cage containing paper bedding. The latency, or time until the mouse fell into the cage, was recorded.

[4] = system: immune tolerant GAA-KO mice; assay: Glycogen content in tissues, ERT plus β2 agonist (Example 6)
Procedure: (§2) Male GAA-KO mice were administered four weekly doses of 20 mg/kg body weight of rhGAA and sacrificed one week following the last injection. Groups of mice were treated with clenbuterol (n=6), albuterol (n=4) or untreated (n=6). Mice were euthanized for tissue analysis 5 weeks after initiation of ERT.
(§3) Cerebral and cerebellar hemispheres were analyzed 5 weeks following the initiation of ERT. Groups of mice were treated with clenbuterol (n=6), albuterol (n=4) or untreated (n=6).
(§4) Two β2 agonists were evaluated in combination with ERT, clenbuterol and albuterol. […] Groups of 3 month-old immune tolerant GAA-KO mice (Raben et al., Human Mol. Genet., 2001, 10:2039-2047) were treated with four weekly doses of rhGAA (20 mg/kg body weight), with or without concurrent β2 agonist treatment.
(§5) Mice were sacrificed 7 days after the last injection. Selected tissues were collected for GAA enzyme activity and glycogen content analyses. All animal procedures were done in accordance with Duke University Institutional Animal Care and Use Committee-approved guidelines. GAA activity and glycogen content analyses, Rotarod testing, and Western blot detection of CI-MPR was performed essentially as described (Koeberl et al., Mol. Genet. Metab., 2011, 103:107-112. Wire hang testing was performed with a 0.5 cm mesh hardware cloth fixed to an 8 by 10 inch frame. Mice were placed on the wire mesh, which was slowly inverted 6 inches over a cage containing paper bedding. The latency, or time until the mouse fell into the cage, was recorded.

[5] = system: immune tolerant GAA-KO mice; assay: GAA activity in tissues, ERT plus β2 agonist (Example 6)
Procedure: as §2, §3, §4, §5

DKO mice = assay: Glycogen clearance after rhGAA in DKO mice
Procedure: (§6) CI-MPR-KO mice were generated using a muscle-specific promoter (muscle creatine kinase; CK) and the cre/loxP conditional knock out system essentially as described previously (Wylie et al., Am. J. Pathol., 2003, 162: 321-328). The muscle-specific CI-MPR-KO mice were crossed with GAA-KO mice to generate muscle specific DKO mice). This mouse colony was subsequently screened to be GAA−/−, M6PR flox/flox and MCK-Cre positive. These DKO mice and age matched Pompe mice were administered four weekly doses of 20 or 100 mg/kg rhGAA and sacrificed 3 days after the last injection. Selected tissues were collected for GAA enzyme activity levels, glycogen content depletion and Western blot analysis. Pompe and DKO mice injected with vehicle were used as controls.
as §1
(§7) To further understand the role of CI-MPR in recombinant human GAA (rhGAA) uptake and glycogen clearance specifically in Pompe disease, muscle-specific CI-MPR-KO mice were crossed with GAA-KO (Pompe disease) mice. […]

[6] = system: CI-MPR-KO/GAA-KO (DKO) mice v. GAA-KO (Pompe disease) mice; assay: Glycogen content in tissues after rhGAA administration, DKO v. GAA-KO mice; conditions: rhGAA four weekly doses, dose not given
Procedure: as §6, §1
(§8) To further understand the role of CI-MPR in recombinant human GAA (rhGAA) uptake and glycogen clearance specifically in Pompe disease, muscle-specific CI-MPR-KO mice were crossed with GAA-KO (Pompe disease) mice. The DKO mice were administered four weekly doses of 20 mg/kg and 100 mg/kg body weight of recombinant human rhGAA and sacrificed three days after the last injection to evaluate GAA enzyme levels and glycogen depletion in the target tissues. […]

[7] = system: CI-MPR-KO/GAA-KO (DKO) mice v. GAA-KO (Pompe disease) mice; assay: GAA enzyme activity in tissues after rhGAA administration, DKO v. GAA-KO mice; conditions: for GAA decrease in DKO v. GAA-KO (%): rhGAA four weekly doses, dose not given
Procedure: as §6, §1, §8

GAA-KO mice [8] = assay: Glycogen clearance after rhGAA in GAA-KO (Pompe) mice
Procedure: as §6, §1, §7

CC(C)(C)NCC(O)c1ccc(O)c(CO)c1 (stereo not drawn) [albuterol] was tested, and the “glycogen content of the quadriceps” value (GAA-KO mice [1]) was “trend toward decreasing”, the “glycogen staining (histopathology)” value [2] was “reduced” and the Rotarod latency [3] was “increased latency”. The Glycogen content ([4]; cerebellum, β2 agonist plus ERT v. ERT alone) was “reduced significantly”, the Glycogen content ([4]; liver, albuterol plus ERT v. ERT alone) was “significantly reduced” and the Glycogen content ([4]; quadriceps, albuterol plus ERT v. ERT alone) was “significantly reduced”. For the same compound, the GAA activity ([5]; cerebellum, 5 weeks after initiation of ERT, clenbuterol p=0.08, albuterol p=0.09) was “trend toward increased GAA activity”, the GAA activity ([5]; tibialis anterior only, albuterol plus ERT v. ERT alone) was “increased” and the “GAA activity in tissues with reduced glycogen content” value ([5]; β2 agonist plus ERT v. ERT alone) was “unchanged”.
Work on “rhGAA: recombinant human acid α-glucosidase used for enzyme replacement therapy (ERT) in Pompe disease” yielded a glycogen clearance (DKO mice; DKO mouse heart, rhGAA 100 mg/kg) of 95%, a glycogen clearance (DKO mice; heart of DKO mice, rhGAA 20 mg/kg) of 7% and a glycogen depletion (DKO mice; quadriceps of DKO mice, rhGAA 20 mg/kg) of 8%. The “Glycogen increase in DKO v. GAA-KO (%)” value ([6]; Diaphragm) was 192%, the “Glycogen increase in DKO v. GAA-KO (%)” value ([6]; Gastrocnemius) was 340% and the “Glycogen increase in DKO v. GAA-KO (%)” value ([6]; Heart) was 1600%. For the same compound, the “Glycogen increase in DKO v. GAA-KO (%)” value ([6]; Quadriceps) was 300%, the “Glycogen increase in DKO v. GAA-KO (%)” value ([6]; Triceps) was 425% and the “GAA decrease in DKO v. GAA-KO (%)” value ([7]; Diaphragm) was 2%. For the same compound, the “GAA decrease in DKO v. GAA-KO (%)” value ([7]; Gastrocnemius) was 72%, the “GAA decrease in DKO v. GAA-KO (%)” value ([7]; Heart) was 47% and the “GAA decrease in DKO v. GAA-KO (%)” value ([7]; Quadriceps) was 79%. For the same compound, the “GAA decrease in DKO v. GAA-KO (%)” value ([7]; Triceps) was 76%, the “reduced rhGAA uptake in DKO mice as compared with Pompe mice” value ([7]; heart, 100 mg/kg rhGAA) was 50% and the “rhGAA uptake (enzyme activity) in DKO v. GAA-KO mice” value ([7]; skeletal tissues (quadriceps, triceps, gastrocnemius), 20 and 100 mg/kg) was “significantly decreased uptake”. For the same compound, the glycogen clearance (GAA-KO mice [8]; GAA-KO mouse heart, rhGAA 100 mg/kg) was 99%, the glycogen clearance (GAA-KO mice [8]; heart of Pompe mice, rhGAA 20 mg/kg) was 77% and the glycogen depletion (GAA-KO mice [8]; quadriceps of GAA-KO mice, rhGAA 20 mg/kg) was 55%.
